Results reported in US9133204B2, “5-membered heterocyclic amides and related compounds” (H. Lundbeck A/S, priority 2007, dated 2015).
pIC50: −log10 of the molar value.

Biological target: T1, P2X7 receptor (Homo sapiens, UniProt Q99572)
T1 construct: host or cells: SH-SY5Y
T1 sequence (Q99572 1-595): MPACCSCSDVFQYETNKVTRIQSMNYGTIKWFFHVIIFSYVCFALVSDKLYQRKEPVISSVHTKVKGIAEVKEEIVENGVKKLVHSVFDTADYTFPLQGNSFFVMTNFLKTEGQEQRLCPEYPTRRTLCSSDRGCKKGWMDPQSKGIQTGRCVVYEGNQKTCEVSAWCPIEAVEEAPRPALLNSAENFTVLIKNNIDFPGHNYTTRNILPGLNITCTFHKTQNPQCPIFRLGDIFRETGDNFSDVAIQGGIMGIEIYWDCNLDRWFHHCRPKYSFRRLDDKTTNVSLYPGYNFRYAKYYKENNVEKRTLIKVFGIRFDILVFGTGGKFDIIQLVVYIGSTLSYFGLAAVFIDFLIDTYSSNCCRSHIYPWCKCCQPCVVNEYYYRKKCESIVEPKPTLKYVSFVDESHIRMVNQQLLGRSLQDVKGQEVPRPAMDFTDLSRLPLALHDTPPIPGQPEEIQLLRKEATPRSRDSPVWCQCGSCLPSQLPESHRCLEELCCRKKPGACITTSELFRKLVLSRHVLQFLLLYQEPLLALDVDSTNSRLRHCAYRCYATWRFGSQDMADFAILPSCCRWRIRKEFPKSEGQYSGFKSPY
Test: High throughput P2X7 calcium mobilization assay (Example 4A)
Type: cell-based
Conditions: SH-SY5Y cells; 50% decrease in fluorescence response of cells exposed to 80 μM BzATP; Table I
Experimental: A. High Throughput Assay of P2X7 Receptors
SH-SY5Y cells, ATCC Number CRL-2266, (American Type Culture Collection, Manassas, Va.) are cultured under DMEM/High medium supplemented with 10% FBS, and 10 mM HEPES (Invitrogen Corp., Carlsbad, Calif.) in 5% CO2 and at 37° C. One day prior to the experiment, cells are plated at a density of 100,000 cells/well in a 96 well black/clear TC plate (Corning® Costar®, Sigma-Aldrich Co., St. Louis, Mo.). At the beginning of the experiment, the culture medium is removed and cells are incubated with 50 μL of 2.3 μM Fluo-4 AM dye (Invitrogen Corp.) in the assay solution (5 mM KCl, 9.6 mM NaH2PO4.H2O, 25 mM HEPES, 280 mM sucrose, 5 mM glucose, and 0.5 mM CaCl2; pH is adjusted to 7.4 with NaOH) for an hour at 37° C. After one hour dye incubation, wells are rinsed once with 50 μL assay solution, and are then incubated for an hour at room temperature with 100 μL assay solution containing the test compound. The final concentration of test compound generally ranges from 1 to 2500 nM; for positive control cells, no test compound is added. After the one hour incubation, plates are transferred to a FLIPR^TETRA instrument (Molecular Devices, Sunnyvale, Calif.) for calcium mobilization analysis.
For determination of antagonist activity, 50 μL, of P2X7 agonist (2′(3)-O-(4-benzoyl-benzoyl)adenosine 5′-triphosephate (BzATP; Sigma-Aldrich) in the assay solution is transferred using the FLIPR into the plate, such that the final agonist concentration is 80 μM (about EC50). In negative control cells, 50 μL of assay solution without agonist is added at this stage. The peak fluorescence signal over a 2 minute period is then measured.
First, the average maximum relative fluorescent unit (RFU) response from the negative control wells (no agonist) is subtracted from the maximum response detected for each of the other experimental wells. Second, average maximum RFU response is calculated for the positive control wells (agonist wells).

| pIC50 | SMILES |
| --- | --- |
| ≥ 5.70 | COc1nccnc1-n1cc(C(=O)NCC23CC4CC(CC(C4)C2)C3)c(C)n1 [Compound 42, N-(adamantan-1-ylmethyl)-1-(3-methoxypyrazin-2-yl)-3-methyl-1H-pyrazole-4-carboxamide] |
| ≥ 5.70 | Cc1cnc(-n2cc(C(=O)NCC34CC5CC(CC(C5)C3)C4)c(C)n2)nc1N [Compound 45, N-(adamantan-1-ylmethyl)-1-(4-amino-5-methylpyrimidin-2-yl)-3-methyl-1H-pyrazole-4-carboxamide] |
| ≥ 5.70 | Cc1cc(C(=O)NCC23CC4CC(CC(C4)C2)C3)n(C)n1 [Compound 46, N-(adamantan-1-ylmethyl)-1,3-dimethyl-1H-pyrazole-5-carboxamide] |
| ≥ 5.70 | CCn1nc(C)c(Br)c1C(=O)NCC(c1ccccc1)c1ccccc1 [Compound 50, 4-bromo-N-(2,2-diphenylethyl)-1-ethyl-3-methyl-1H-pyrazole-5-carboxamide] |
| ≥ 5.70 | Cc1nn(-c2nccnc2N)cc1C(=O)NCC12CC3CC(CC(C3)C1)C2 [Compound 58, N-(adamantan-1-ylmethyl)-1-(3-aminopyrazin-2-yl)-3-methyl-1H-pyrazole-4-carboxamide] |
| ≥ 5.70 | Cc1nn(-c2cnc(N)cn2)cc1C(=O)NCC12CC3CC(CC(C3)C1)C2 [Compound 61, N-(adamantan-1-ylmethyl)-1-(5-aminopyrazin-2-yl)-3-methyl-1H-pyrazole-4-carboxamide] |
| ≥ 5.70 | Cc1nn(C)c(C(=O)NCC23CC4CC(CC(C4)C2)C3)c1Br [Compound 62, N-(adamantan-1-ylmethyl)-4-bromo-1,3-dimethyl-1H-pyrazole-5-carboxamide] |
| ≥ 5.70 | CCn1nc(C)c(Br)c1C(=O)NCC12CC3CC(CC(C3)C1)C2 [Compound 63, N-(adamantan-1-ylmethyl)-4-bromo-1-ethyl-3-methyl-1H-pyrazole-5-carboxamide] |
| ≥ 5.70 | Cc1cc(-n2cc(C(=O)NCC34CC5CC(CC(C5)C3)C4)c(C)n2)nc(N)n1 [Compound 64, N-(adamantan-1-ylmethyl)-1-(2-amino-6-methylpyrimidin-4-yl)-3-methyl-1H-pyrazole-4-carboxamide] |
| ≥ 5.70 | O=C(NCC12CC3CC(CC(C3)C1)C2)c1sc(-c2ccccc2C(F)(F)F)nc1Cl [Compound 65, N-(adamantan-1-ylmethyl)-4-chloro-2-[2-(trifluoromethyl)phenyl]-1,3-thiazole-5-carboxamide] |
| ≥ 5.70 | Cc1nc(OC2CCNCC2)sc1C(=O)NCC12CC3CC(CC(C3)C1)C2 [Compound 70, N-(adamantan-1-ylmethyl)-4-methyl-2-(piperidin-4-yloxy)-1,3-thiazole-5-carboxamide] |
| ≥ 5.70 | Cc1nc(N2CCNCC2)sc1C(=O)NCC12CC3CC(CC(C3)C1)C2 [Compound 72, N-(adamantan-1-ylmethyl)-4-methyl-2-piperazin-1-yl-1,3-thiazole-5-carboxamide] |
| ≥ 5.70 | Cc1ccsc1C(=O)NCC12CC3CC(CC(C3)C1)C2 [Compound 73, N-(1-adamantylmethyl)-3-methylthiophene-2-carboxamide] |
| ≥ 5.70 | O=C(NCC12CC3CC(CC(C3)C1)C2)c1ccc(Br)s1 [Compound 76, N-(1-adamantylmethyl)-5-bromothiophene-2-carboxamide] |

More lines, now with the values behind:

| SMILES | pIC50 |
| --- | --- |
| Cc1nn(-c2cncc(N)n2)cc1C(=O)NCC12CC3CC(CC(C3)C1)C2 [Compound 43, N-(adamantan-1-ylmethyl)-1-(6-aminopyrazin-2-yl)-3-methyl-1H-pyrazole-4-carboxamide] | ≥ 5.70 |
| COC(=O)c1cc(C(=O)NCC23CC4CC(CC(C4)C2)C3)n(C(C)C)n1 [Compound 47, methyl 5-[(adamantan-1-ylmethyl)carbamoyl]-1-isopropyl-1H-pyrazole-3-carboxylate] | ≥ 5.70 |
| CCn1nc(C)c(Br)c1C(=O)NCC(CC(C)C)c1ccccc1 (centres unmarked) [Compound 49, 4-bromo-1-ethyl-3-methyl-N-(4-methyl-2-phenylpentyl)-1H-pyrazole-5-carboxamide] | ≥ 5.70 |
| CC(C)n1nc(CN2CCCC(N)C2)cc1C(=O)NCC12CC3CC(CC(C3)C1)C2 (centres unmarked) [Compound 55, N-(adamantan-1-ylmethyl)-3-[(3-aminopiperidin-1-yl)methyl]-1-isopropyl-1H-pyrazole-5-carboxamide] | ≥ 5.70 |
| Cc1cnc(-n2cc(C(=O)NCC34CC5CC(CC(C5)C3)C4)c(C)n2)nc1NCCO [Compound 56, N-(adamantan-1-ylmethyl)-1-{4-[(2-hydroxyethyl)amino]-5-methylpyrimidin-2-yl}-3-methyl-1H-pyrazole-4-carboxamide] | ≥ 5.70 |
| Cc1nn(-c2cccc(N)n2)cc1C(=O)NCC12CC3CC(CC(C3)C1)C2 [Compound 59, N-(adamantan-1-ylmethyl)-1-(6-aminopyridin-2-yl)-3-methyl-1H-pyrazole-4-carboxamide] | ≥ 5.70 |
| O=C(NCC12CC3CC(CC(C3)C1)C2)c1cnc(-c2ccccc2C(F)(F)F)s1 [Compound 67, N-(adamantan-1-ylmethyl)-2-[2-(trifluoromethyl)phenyl]-1,3-thiazole-5-carboxamide] | ≥ 5.70 |
| Cc1nc(Sc2nccn2C)c(C(=O)NCC23CC4CC(CC(C4)C2)C3)s1 [Compound 69, N-(adamantan-1-ylmethyl)-2-methyl-4-[(1-methyl-1H-imidazol-2-yl)thio]-1,3-thiazole-5-carboxamide] | ≥ 5.70 |
| CSc1ccc(C(=O)NCC23CC4CC(CC(C4)C2)C3)s1 [Compound 75, N-(1-adamantylmethyl)-5-(methylthio)thiophene-2-carboxamide] | ≥ 5.70 |

Same assay, conditions: SH-SY5Y cells; 50% decrease in fluorescence response of cells exposed to 80 μM BzATP; flag after the MS data in Examples 1-2

| pIC50 | SMILES |
| --- | --- |
| ≥ 5.70 | Cc1nc(-c2cccnc2)sc1C(=O)NCC1(c2ccc(F)cc2)CCCCC1 [Compound 34] |
| ≥ 5.70 | CCCC(CNC(=O)c1sc(-c2cccnc2)nc1C)c1ccc(Cl)cc1 (centres unmarked) [Compound 35, N-[2-(4-chlorophenyl)pentyl}-4-methyl-2-pyridin-3-yl-1,3-thiazole-5-carboxamide] |
| ≥ 5.70 | Cc1nc(-c2cccnc2)sc1C(=O)NCC1(c2ccc(Cl)c(F)c2)CCCCC1 [Compound 39, N-{[1-(4-chloro-3-fluorophenyl)cyclohexyl]methyl}-4-methyl-2-pyridin-3-yl-1-,3-thiazole-5-carboxamide] |
| ≥ 5.70 | Cc1ccc(C2(CNC(=O)c3sc(-c4cccnc4)nc3C)CCCCC2)cn1 [Compound 40, N-{[1-(6-methylpyridin-3-yl)cyclohexyl]methyl}-4-methyl-2-pyridin-3-yl-1-,3-thiazole-5-carboxamide] |

Further lines, the molecule ahead of its results:

| SMILES | pIC50 |
| --- | --- |
| Cc1nc(-c2cccnc2)sc1C(=O)NCC1(c2ccc(C(F)(F)F)cc2)CCCCC1 [Compound 32, N-({1-[4-(trifluoromethyl)phenyl]cyclohexyl}methyl)-4-methyl-2-pyridin-3-yl-1-,3-thiazole-5-carboxamide] | ≥ 5.70 |
| Cc1ccc(C(CNC(=O)c2sc(-c3cccnc3)nc2C)CC(C)C)cc1 (centres unmarked) [Compound 33, N-[4-methyl-2-(4-methylphenyl)pentyl}-4-methyl-2-pyridin-3-yl-1,3-thiazole-5-carboxamide] | ≥ 5.70 |
| COc1ccc(C2(CNC(=O)c3sc(-c4cccnc4)nc3C)CCCCC2)cc1 [Compound 36, N-{[1-(4-methoxyphenyl)cyclohexyl]methyl}-4-methyl-2-pyridin-3-yl-1,3-thiazole-5-carboxamide] | ≥ 5.70 |
| Cc1nc(-c2cccnc2)sc1C(=O)NCC1(c2ccc(Cl)cc2)CCOCC1 [Compound 37, N-{[4-(4-Chlorophenyl)tetrahydro-2H-pyran-4-yl]methyl}-4-methyl-2-pyridin-3-yl-1,3-thiazole-5-carboxamide] | ≥ 5.70 |
| Cc1ccc(C2(CNC(=O)c3sc(-c4cccnc4)nc3C)CCCCC2)cc1 [Compound 38, N-{[1-(4-methylphenyl)cyclohexyl]methyl}-4-methyl-2-pyridin-3-yl-1,3-thiazole-5-carboxamide] | ≥ 5.70 |
